Reference: patent publication US20130197002A1, “B[…] TREATING VISUAL DISORDERS MEDIATED BY CENTRAL VISUAL P[…] THE EYE” (ALLERGAN, INC., priority 2012, published 2013)

Test system: rat visual cortex slices
Assay: Long-term potentiation (LTP) in visual cortex slice
Assay type: cell-based
Method: Long-Term Potentiation in Visual Cortex Slice
Following decapitation of the anesthetized rat, the brain was rapidly removed and immersed in ice-cold artificial cerebrospinal fluid (ACSF) containing (in mM) NaCl 124, KCl 3, KH2PO4 1.25, CaCl2 3.4, MgSO4 2.5, NaHCO3 26, and D-glucose 10. A block of visual cortex was created by removing the frontal ⅔ portion of the brain and the cerebellum. Coronal visual cortex slices of 350 μm thick were prepared from young adult (200-300 g) male Sprague-Dawley rats using a vibratome (VT 1000 S; Leica). The slices were maintained in an interface recording chamber perfused with preheated ACSF. Slices were continuously perfused with this solution at a rate of 1.00-1.50 ml/min while the surface of the slices was exposed to warm, humidified 95% O2/5% CO2 and maintained at 31±1° C. Visual cortex slices were allowed to recover for 1 hr before recording began. A single stimulating and recording electrode was placed in layer IV and III, respectively, to generate and record field excitatory postsynaptic potentials (fEPSPs). Pulses were administered at 0.05 Hz using a current that produced a fEPSP that is 50% of the maximum spike free response. An input-output (IO) curve is done to determine the stimulation needed to achieve a stable baseline. Following a 15 min stable baseline recording period, a train of 5 theta bursts (each burst containing four pulses at 100 Hz with an inter-burst interval of 200 ms) is delivered to the slice. This is repeated 2 additional times with a 1 minute inter-train interval, and the level of LTP was recorded for at least 30 min. Changes in amplitude of the synaptic response were used to measure the extent of LTP, since the amplitude was determined to be the more consistent parameter than the slope of the response. Control LTP values were obtained from slices not treated with drug. Different slices were used to study drug effects on LTP. Brimonidine was infused after 15 min baseline recording for duration of 20 minutes followed by LTP induction. […] LTP was recorded for at least 30 min after induction.

| Structure (SMILES) | brimonidine-induced enhancement of LTP in presence of alpha 2 pan antagonist (atipamezole plus brimonidine, FIG. 1 right panel) | effect on LTP (brimonidine administered to visual cortex slices, FIG. 1 left panel) | threshold dose for enhancement of LTP (visual cortex slices, FIG. 1 left panel) [nM] |
| --- | --- | --- | --- |
| CCC1(c2cnc[nH]2)Cc2ccccc2C1 [atipamezole] | fully suppressed | – | – |
| Brc1c(N=C2NCCN2)ccc2nccnc12 [brimonidine, (5-bromo-quinoxalin-6-yl)-imidazolidin-2-ylidene-amine] | – | marked and dose-dependent enhancement of LTP | 3 |
